Results: publication PMC10818546, “CYP1-Activation and Anticancer Properties of Synthetic Methoxylated Resveratrol Analogues” (Molecules, 2024)
Read-outs that look alike come from different tables or passages of the source.

Legend:
MCF7 = test: MTT cytotoxicity assay, MCF7 cells (uninduced); assay type: cell-based, human; settings: Homo sapiens, read-out: IC50 MCF7
Procedure: (§1) The antiproliferative activity of the resveratrol analogues was investigated using a human breast cell line panel, which has been characterised for CYP1 expression in our laboratories. IC50 values for both cis- and trans-isomers were determined using a standard 3-[4,5-dimethylthiazol-2-yl]-2,5-diphenyl tetrazolium bromide (MTT) cell viability assay and are shown in Table 1 (trans-stilbene analogues) and Table 2 (cis-stilbene analogues).
(§2) MCF7 cells are both ER positive and Ah receptor positive and have been well documented for their CYP1 expression, and it is known that treatment with TCDD elevates CYP1A1 and CYP1B1 expression. The cells were treated with DMSO (0.1%) for 24 h for constitutive expression, whereas for inducible CYP1 expression, the cells were treated with TCDD (10 nM) for 24 h.
(§3) A standard MTT (3-[4,5-dimethylthiazol-2-yl]-2,5-diphenyl tetrazolium bromide) cell viability assay was employed to evaluate the cytotoxicity of the stilbenes prepared. The MTT assay is a rapid quantitative spectrophotometric method for determining cell growth (viability) due to necrosis or apoptosis in monolayer-cultured cell lines in response to external factors. It is widely employed to evaluate the cytotoxicity of potential medicinal agents.
(§4) MCF7 cells were grown in RPMI-1640 medium with phenol red and 10% (v/v) heat-inactivated (heated to 56 °C for 45 min) foetal calf serum. MDA-468 cells were grown in RPMI-1640 medium with 10% (v/v) heat-inactivated foetal calf serum and L-glutamine (2 mM) without phenol red. MCF-10A cells were grown in Dulbecco’s modified Eagle’s medium/ Ham’s F-12 medium (1:1) with 5% (v/v) heat-inactivated foetal calf serum, epidermal growth factor (20 ng/mL), insulin ([…]) and hydrocortisone (500 ng/mL). Cells were maintained at 37 °C, 5% CO2/95% air with 100% humidity and passaged every 2–3 days using trypsin EDTA solution (0.25% w/v). Adhered cells at sub confluence were harvested for experimental use.
(§5) Aliquots of cell suspensions (100 µL at 2 × 10^3 cells per ml) were dispensed into sterile 96-well microtiter flat-bottomed plates. For the MDA468 and MCF10A cell lines, the plates were incubated at 37 °C, 5% CO2/95% air with 100% humidity for 24 h prior to the addition of test compounds. For MCF7 cells, after allowing approximately 4 h for cells to adhere, 100 µL of medium containing TCDD (from 100 mM stock in DMSO) or medium with 0.2% (v/v) DMSO was added to give a final concentration of 10 nM TCDD and 0.1% (v/v) DMSO. After 24 h, the medium was aspirated and replaced with fresh medium (100 µL) before the addition of test compounds.
(§6) Then, 100 µL aliquots of test compounds were added within 30 min into the wells from a 100 mM stock solution in DMSO and serially diluted to give final concentrations of […], 0.01, 0.003, 0.001 and 0.0003 µM. […] The cells were allowed to grow for 96 h at 5% CO2, 37 °C, to give 80–90% confluence in the control wells, after which 50 µL of 2 mg/mL MTT (final concentration 0.4 mg/mL) in sterile phosphate buffer was added to each well and the plates were further incubated for 2 h. All medium was aspirated and the formazan precipitate generated by viable cells was solubilised by 150 µL of DMSO. All the plates were vortexed and the absorbance at 540 nm was determined using a SpectraMax M5 plate reader (Molecular Devices, Wokingham, UK).
(§7) Results were expressed as a percentage of the control value versus the negative logarithm of the molar drug concentration range using GraphPad Prism (Version 5.00). Relative toxicities of each compound within each cell line were expressed as 50% of growth inhibition (IC50). All determinations were carried out in quadruplicate.

MCF7 (TCDD) = test: MTT cytotoxicity assay, TCDD-induced MCF7 cells; assay type: cell-based, human; settings: Homo sapiens
Procedure: as §1, §2, §3, §4, §5, §6, §7

MCF10A = test: MTT cytotoxicity assay, MCF10A non-tumour control cells; assay type: cell-based; settings: Homo sapiens, MCF-10A, read-out: IC50 MCF10A
Procedure: as §1
MCF10A cells are non-tumourigenic human mammary epithelial in origin which have been spontaneously immortalised without chemical intervention. CYP1 activity in MCF10A cells is negligible. […] Thus, MCF10A cell line is commonly used as a control in cytotoxicity assays.
as §3, §4, §5, §6, §7

MDA468 = test: MTT cytotoxicity assay, MDA468 cells; assay type: cell-based, human; settings: for IC50: Homo sapiens, read-out: IC50 MDA468; for TS = tumour selectivity = IC50 MCF10A/IC50 MDA468: ratio of IC50 values
Procedure: as §1
MDA468 cells represent an aggressive multi-drug-resistant tumour type and are ER negative but are aryl hydrocarbon (Ah) receptor positive in the presence of TCDD [46].
as §3, §4, §5, §6, §7

[1] = tested on: human breast cell line panel; test: MTT cytotoxicity assay, statements for all cell lines of the panel; assay type: cell-based; settings: MCF7, MCF7 (TCDD), MCF10A, MDA468, summary of the text; for IC50: Homo sapiens, read-out: IC50 for all cell lines tested
Procedure: as §1, §3, §4, §5, §6, §7

MDA231 = test: MTT cytotoxicity assay, MDA231 cells; assay type: cell-based; settings: Homo sapiens, MDA-MB-231; triple negative breast tumour cell line
Procedure: DMU212 was also evaluated for cytotoxic activity in the aggressive, triple negative breast tumour cell line MDA231. This cell line has been reported to only weakly express CYP1A1 but constitutively express CYP1B1 [33]. […] However further studies would be required to confirm this statement.
MDA231 breast cancer cell line represents an aggressive tumour type. Treatment of this ER-negative and Ah receptor-positive cell line with TCDD has been reported to only weakly induce CYP1A1 mRNA expression but enhance the constitutive CYP1B1 expression. Other researchers have reported the ratio of active CYP1A1/CYP1B1 protein as 16/84 ratio in MDA231 [32].
as §3, with “It is widely employed to evaluate the cytotoxicity of potential medicinal agents.” left out
Then, 100 µL aliquots of test compounds were added within 30 min into the wells from a 100 mM stock solution in DMSO and serially diluted to give final concentrations of […], 0.01, 0.003, 0.001 and 0.0003 µM. […] All the plates were vortexed and the absorbance at 540 nm was determined using a SpectraMax M5 plate reader (Molecular Devices, Wokingham, UK). […]

[2] = tested on: CYP1 enzymes (CYP1A1, CYP1A2, CYP1B1); test: Incubation with human CYP1 Supersomes, HPLC analysis; assay type: in vitro ADME; settings: NADPH, 37 °C, 20 min
Procedure: The CYPs isozyme panel used in this study were prepared from transformed insect cells expressing human CYPs (CYP1A1, CYP1A2 or CYP1B1) with co-expression of human NADPH reductase (Supersomes^TM). […] The general procedure was as follows: DMU212 was separately incubated with CYP1A1, CYP1A2, CYP1B1, CYP3A4 and non-CYP-expressing Supersomes^TM in the presence of phosphate buffer and NADPH at 37 °C. Samples were taken at regular intervals of 5 min over a 20 min period, and the enzymatic reaction in the sample was terminated immediately. Following centrifugation, the supernatants were removed and analysed by HPLC.
After 10 min of analysis, a linear gradient was initiated with the acetonitrile content rising to 70% over 5 min and with the 50 mM ammonium acetate decreasing accordingly. An equilibration time of 6 min was allowed between each sample. Analysis was conducted with a Jasco (Jasco UK limited) analytical system consisting of an AS841 autosampler, PU980 pump and LG low-pressure tertiary mixing valve, FP1500 fluorescence detector (JASCO UK Ltd., Heckmondwike, UK), column heater/ chiller (Jones Chromatography), and DG440 in-line degasser (Phenomenex, UK). Analytical data were collected using Borwin HPLC software (version 1.5), For the detection of DMU215, an in-line photoreactivity cell was used (Beam Boost^TM, Advanced Separations Technology Incorporated).

[3] = mouse, 0.2% (w/w) of the diet for 14 weeks; cited from earlier work
[4] = MCF7, 96 h, MTT assay, 96 h incubation, 37 °C, means of quadruplicate
[5] = MCF7, MTT assay, 96 h incubation, cells induced with 10 nM TCDD for 24 h, read-out: IC50 MCF7 (TCDD)
[6] = 96 h, MTT assay, 96 h incubation, non-tumour control cells

| SMILES | IC50 (MCF7; [4]) [µM] | IC50 (MCF7 (TCDD); [5]) [µM] | IC50 (MCF10A; [6]) [µM] | IC50 (MDA468; MTT assay, 96 h incubation) [µM] | TS = tumour selectivity = IC50 MCF10A/IC50 MDA468 (MDA468) | IC50 [1] [µM] | also measured |
| --- | --- | --- | --- | --- | --- | --- | --- |
| COc1ccc(C=Cc2cc(OC)c(OC)c(OC)c2)cc1O [DMU214, 3,4,5,4′-tetramethoxy-3′-hydroxy stilbene] | 0.06 | 0.11 | 0.05 | 0.05 | 1 |  | IC50 for all cell lines tested [1]: sub-micromolar IC50 values |
| COc1cc(C=Cc2ccc(O)c(O)c2)cc(OC)c1OC [DMU283, 3,4,5-trimethoxy-3′,4′-dihydroxy stilbene] | 0.02 | 0.14 | 0.008 | 0.05 | 0.16 |  | IC50 for all cell lines tested [1]: sub-micromolar IC50 values |
| COc1cc(/C=C/c2ccccc2)cc(OC)c1OC [DMU507] | 50 | 50 | 70 | 10 | 7 | > 10 |  |
| COc1cc(/C=C\c2ccccc2)cc(OC)c1OC [DMU508] | 5 | 4 | 7 | 9 | 0.9 | 4 to 9 |  |
| COc1ccc(/C=C/c2cc(OC)c(OC)c(OC)c2)cc1 [DMU212, (E)-4,3′,4′,5′-tetramethoxystilbene] |  |  |  |  | over 4000 |  | IC50 (MCF7; MCF7, 96 h): 2.6 µM; IC50 (MCF7 (TCDD); MCF7, read-out: IC50 MCF7 (TCDD)): 0.12 µM; IC50 (MCF10A; 96 h): 4.3 µM; IC50 (MDA468; 96 h): 0.001 µM; TS = tumour selectivity = IC50 MCF10A/IC50 MDA468 (MDA468; listed as 212): 4300; IC50 (MDA231): > 100 µM; substrate for CYP1 enzymes [2]: substrate for CYP1 enzymes; hepatotoxicity [3]: without any obvious signs of hepatoxicity; steady state level in the liver [3]: up to 0.7 nmol/g tissue |
| COc1ccc(/C=C/c2cc(OC)c(OC)c(OC)c2)cc1OC [DMU2417] | 14 | 14 | 18 | 9 | 2 | > 9 |  |
| COc1ccc(/C=C/c2cc(OC)c(O)c(OC)c2)cc1O [DMU293] | 100 | 100 | 110 | 10 | 10 |  |  |
| COc1cc(/C=C/c2ccc(OC)c3ccccc23)cc(OC)c1OC [DMU569] |  | 8.6 |  | 4.5 | nine |  | IC50 (MCF7; MCF7, MTT assay, 96 h incubation, 37 °C, means of quadruplicate): 30 µM; IC50 (MCF10A; MTT assay, 96 h incubation, non-tumour control cells): 40 µM; TS = tumour selectivity = IC50 MCF10A/IC50 MDA468 (MDA468; listed as 569): 9 |
| COc1cc(/C=C\c2ccc(I)cc2)cc(OC)c1OC [DMU510] | 0.06 | 0.06 | 0.01 | 0.006 | 2 |  |  |
